Entries after “also recorded” stand apart in the source; their conditions may differ.
Tests used:
[1] = molecular target: T1, MAP/microtubule affinity-regulating kinase 4 (MARK4) (Homo sapiens, UniProt Q96L34); test: Enzyme activity assay (SAMDI-MS), MARK4; type: biochemical; conditions: 10 concentrations, 5 nM to 100 μM, compounds incubated with enzyme 30 min, result in words
T1 sequence (Q96L34 1-752): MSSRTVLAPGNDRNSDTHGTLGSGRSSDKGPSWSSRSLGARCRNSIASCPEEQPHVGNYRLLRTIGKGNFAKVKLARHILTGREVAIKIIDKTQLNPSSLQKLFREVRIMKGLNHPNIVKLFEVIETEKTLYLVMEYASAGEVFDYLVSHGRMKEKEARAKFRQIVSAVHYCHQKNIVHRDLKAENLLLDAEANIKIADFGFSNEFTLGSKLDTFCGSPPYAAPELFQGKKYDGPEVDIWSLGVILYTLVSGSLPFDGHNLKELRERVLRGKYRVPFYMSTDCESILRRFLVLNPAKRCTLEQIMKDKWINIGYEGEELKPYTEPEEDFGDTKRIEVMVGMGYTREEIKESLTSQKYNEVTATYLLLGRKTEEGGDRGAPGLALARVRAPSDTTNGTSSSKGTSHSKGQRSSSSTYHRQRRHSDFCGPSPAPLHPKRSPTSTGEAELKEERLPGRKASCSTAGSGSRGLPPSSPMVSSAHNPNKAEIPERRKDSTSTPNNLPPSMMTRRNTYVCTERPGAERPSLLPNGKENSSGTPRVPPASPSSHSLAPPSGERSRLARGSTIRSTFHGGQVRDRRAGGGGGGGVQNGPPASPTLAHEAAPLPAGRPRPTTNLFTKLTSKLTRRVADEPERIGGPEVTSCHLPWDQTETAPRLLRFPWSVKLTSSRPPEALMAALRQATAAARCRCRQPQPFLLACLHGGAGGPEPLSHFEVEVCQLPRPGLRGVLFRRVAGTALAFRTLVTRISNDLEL
Procedure: Enzyme screens were performed by SAMDI Tech (contract research organization); enzyme assays were performed in a 20 μL volume in 384-well low-volume polypropylene microtiter plates (Greiner Bio-One) at room temperature. The enzymes [Arginase 1 (ARG1), Lysine demethylase 4C (KDM4C), MAP/microtubule affinity-regulating kinase 4 (MARK4), Histone-Lysine N-methyltransferase (NSD2), Tyrosine-protein phosphatase non-receptor type 1 (PTP1B), and Sirtuin-3 (SIRT3)] were incubated with compounds for 30 min prior to initiation of the reaction by the addition of substrate and cofactors (if required). Reactions were quenched by the addition of 0.5% formic acid (final) with subsequent neutralization using 1% sodium bicarbonate (final). For SAMDI MS analysis, 2 μL of each reaction was transferred using a 384-channel automated liquid handler to SAMDI biochip arrays functionalized with a neutravidin-presenting self-assembled monolayer. The preparation of SAMDI biochip arrays has been previously described ([41], [42], [49]). The SAMDI arrays were incubated for 1 h in a humidified chamber to allow specific immobilization of the biotinylated substrates and products; they were then purified by washing with ultrafiltered water (50 μL/spot) and dried with compressed air. A matrix comprising α-Cyano-4-hydroxycinnamic acid in 80% acetonitrile: 20% aqueous ammonium citrate (10 mg/mL final) was applied in an automated format by dispensing 50 nL to each spot in the array. SAMDI MS was performed using reflector positive mode on an AB Sciex TOF-TOF 5800 System (AB Sciex, Framingham, MA) with 400 shots/spot analyzed in a random raster sampling. For data analysis, the area under the curves (AUCs) for the product peak and substrate peak were calculated using the TOF/TOF Series Explorer (AB Sciex), and the amount of product formed was calculated using the equation AUC product / (AUC product + AUC Substrate). Negative controls were pre-quenched with 0.5% formic acid (final). Lysozyme assay was performed using the manufacturer’s instructions (Biovision Lysozyme inhibitor screening kit K237). Flavonoids were acquired from Sigma-Aldrich and Seleckchem.
IC50 values of enzyme inhibition. Inhibition of the enzymes was measured at 10 concentration values in the range of 5 nM to 100 μM for each compound and enzyme, with two technical replicates; the percent inhibition values were determined by SAMDI software. Sigmoidal curves were fitted to the percent inhibition vs log10 (concentration) series, and IC50 values were determined at the crossing point of 50 % inhibition. […] First, for each IC50 value per compound and enzyme, a Z-score was calculated based on the log10 (IC50) value and that of the compounds that produced a successful readout for enzyme i , according to Equation 1: […]

human dermal fibroblasts = test: Protection of fibroblasts against ultraviolet radiation, cell viability by CellTiter-Glo; type: cell-based; conditions: 1 h pretreatment, 254 nm UV 20 mJ/cm^2, viability 24 h post-irradiation; result in words
Procedure: Human fibroblasts were obtained from Cell Applications Inc (Cat. # 106-05a) and were maintained in Dulbecco’s Modified Eagle medium (DMEM, Corning, Cat. #10-013-CV) with 10% fetal bovine serum (Gibco, Cat. #10082147) and 1% penicillin/streptomycin (Gibco, Cat. # 15070-063) in a humidified incubator with 5% CO2 at 37 °C. For ultraviolet radiation, fibroblasts were seeded in a 96-well plate at a density of 25,000 cells/well and maintained at 37 °C for 24 h. Cells were washed once with Hanks’ balanced salt solution (HBSS, Gibco, Cat. #14025-092), then treated for 1 h with different concentrations of compounds prepared in HBSS. Vitamin C (Sigma, Cat. # A5960) served as a positive control. Treated cells were exposed to ultraviolet light (UVP cross-linker, CL1000, 254 nm UV, 8 watts) at a total dose of 20 mJ/cm^2. Following irradiation, the HBSS was replaced with culture medium containing the same concentration of compounds as before irradiation, and cells were again maintained at 37 °C. Cell viability was measured at 24 h post-irradiation using CellTiter-Glo according to the manufacturer’s instructions (Promega, Cat.# G7571). Results were expressed as relative cell viability (%) with respect to control cells (cells without ultraviolet irradiation or compound treatment).

O=c1c(O[C@@H]2O[C@H](CO)[C@@H](O)[C@H](O)[C@H]2O)c(-c2ccc(O)c(O)c2)oc2cc(O)cc(O)c12 [isoquercitrin] was tested, and the “inhibition of enzyme activity, MARK4” value [1] was “inhibited” and the “protection against the loss of cell viability caused by UV radiation” value (from here on “protection against the loss”) (human dermal fibroblasts) was “concentration-dependent protection”.

For O=c1c(O)c(-c2ccc(O)c(O)c2)oc2cc(O)cc(O)c12 [quercetin], the “inhibition of enzyme activity, MARK4” value ([1]; listed as Quercetin) was “inhibited”, the “inhibition of enzyme activity, MARK4” value ([1]; listed as Quercitin) was “concentration-dependent inhibition” and the “protection against the loss” value (human dermal fibroblasts) was “concentration-dependent protection”.

With C[C@@H]1O[C@@H](Oc2c(-c3ccc(O)c(O)c3)oc3cc(O)cc(O)c3c2=O)[C@H](O)[C@H](O)[C@H]1O [quercitrin] the “inhibition of enzyme activity, MARK4” value [1] was “did not affect; also recorded: did not inhibit” and the “protection against the loss” value (human dermal fibroblasts) was “concentration-dependent protection”.

Source: article PMC12439166, “Dietary flavonoids form supramolecular assemblies, alter biochemistry, and enhance cell resilience” (Frontiers in Nutrition, 2025)
